pIC50: −log10 of the molar value.
Legend:
[1] = system: spasm induced by acetylcholine; assay: Konzett test, inhibition of spasm induced by acetylcholine; assay type: in vivo, guinea-pigs; details: guinea-pig Konzett test; for ED50: Cavia porcellus, read-out: ID50 spasm inhibition induced by acetylcholine
Procedure: (§1) The activity was determined on the basis of inhibition of spasm induced by three endogenic spasmogenic agents (5-hydroxy-tryptamine histamine, acetyloholine).

[2] = system: spasm induced by 5-hydroxy-tryptamine; assay: Konzett test, inhibition of spasm induced by 5-hydroxy-tryptamine; assay type: in vivo, guinea-pigs; details: guinea-pig Konzett test; for ED50: Cavia porcellus, read-out: ID50 spasm inhibition induced by 5-hydroxy-tryptamine
Procedure: as §1

[3] = system: spasm induced by histamine; assay: Konzett test, inhibition of spasm induced by histamine; assay type: in vivo, guinea-pigs; details: guinea-pig Konzett test; for ED50: Cavia porcellus, read-out: ID50 spasm inhibition induced by histamine
Procedure: as §1

[4] = Drugs of the Future 1981, 6, 362; cited from earlier work
human bronchus = assay: Human bronchus test, inhibition of Carbacol-induced contraction; details: contraction by 1 μmole Carbacol, 37 C; for pIC50: amount for 50% inhibition
Description: As a further Example the activity of the compound of the formula IX is illustrated by human bronchus test. Human bronchus obtained surgically was dipped into an oxygenized physiological solution of 37 C. The contraction is induced by 1 μmole Carbacol.

[5] = system: spasm induced by three endogenic spasmogenic agents; assay: Konzett test, duration of activity and comparison with known compounds; assay type: in vivo, guinea-pigs; details: guinea-pig Konzett test; marks all three ID50 values
Procedure: The activity of the compounds of the invention was examined by Konzett test (Konzett H. and, Rossler R., Arch. Exp. Path. Pharm., 1940, 195 71) using guinea-pigs. The activity was determined on the basis of inhibition of spasm induced by three endogenic spasmogenic agents (5-hydroxy-tryptamine histamine, acetyloholine).

`O=c1c2c(nc3n1CCCCC3)CCC2` gave an ED50 [1] of 3.7 µmol/kg, an ED50 [2] of 13.8 µmol/kg and an ED50 [3] of 6.5 µmol/kg.
In the case of `O=c1c2ccccc2nc2n1CCCCC2` [6,7,8,9,10,12-hexahydroazepino[2,1-b]quinazoline-12-one], the bronchodilatory activity [4] is given as “displays bronchodilatory activity”.
`O=c1c2c(nc3n1CCCCC3)CCCC2` [IX] gave a pIC50 (human bronchus; Homo sapiens) of 5.27, an inhibition at 100 µM (human bronchus; Homo sapiens, dosage 10^-4 (10^-4.0) mole/1, read-out: spasm reduction) of 184% and an inhibition at 31.62 µM (human bronchus; Homo sapiens, dosage 10^-4.5 mole/1, read-out: spasm reduction) of 113%. The inhibition at 10 µM (human bronchus; Homo sapiens, dosage 10^-5.0 mole/1, read-out: spasm reduction) was 48%, the inhibition at 3.162 µM (human bronchus; Homo sapiens, dosage 10^-5.5 mole/1, read-out: spasm reduction) was 23% and the inhibition at 1 µM (human bronchus; Homo sapiens, dosage 10^-6.0 mole/1, read-out: spasm reduction) was 3%.
In the case of `O=c1c2c(nc3n1CCCCC3)CCCC2` [drawing 9], the ED50 [1] was 7.8 µmol/kg, the “ID50 spasm inhibition induced by 5-hydroxy-tryptamine” value [2] was 3.0 µmol/kg and the “duration of activity (footnote x)” value [5] was “long-lasting activity”. The ED50 [3] was 3.1 µmol/kg.
With `O=c1c2c(nc3n1CCCCC3)CCCC2` [drawing 10] the “ID50 spasm inhibition induced by acetylcholine” value [1] was 6.3 µmol/kg, the “ID50 spasm inhibition induced by 5-hydroxy-tryptamine” value [2] was 15.7 µmol/kg and the “ID50 spasm inhibition induced by histamine” value [3] was 5.4 µmol/kg.
With `O=c1c2ccccc2nc2n1CCCCC2` [drawing 12, reference compound] the ED50 [1] was 26.3 µmol/kg, the ED50 [2] was 36 µmol/kg and the ED50 [3] was 6.2 µmol/kg.
For “theophilline anisate [reference compound]”, the “ID50 spasm inhibition induced by acetylcholine” value [1] was 22.0 µmol/kg, the “ID50 spasm inhibition induced by 5-hydroxy-tryptamine” value [2] was 14.0 µmol/kg and the pIC50 (human bronchus) was 3.82. The spasm reduction (human bronchus; dosage 10^-3.75 mole/1, 177.8 µM) was 64%, the spasm reduction (human bronchus; dosage 10^-4 (10^-4.0) mole/1, 100 µM) was 28% and the spasm reduction (human bronchus; dosage 10^-4.25 mole/1, 56.23 µM) was 10%. The spasm reduction (human bronchus; dosage 10^-4.5 mole/1, 31.62 µM) was 5% and the “ID50 spasm inhibition induced by histamine” value [3] was 14.0 µmol/kg.

— patent US4588526A, “Bronchodilatory azepino(1,2-A)pyrimidine derivatives and acid addition salts thereof and bronchodilating pharmaceutical compositions containing same” (Chinoin Gyogyszer es Vegyeszeti Termekek Gyara Rt, priority 1982, dated 1986)
